Measured values from the NIST ThermoML archive (doi:10.1007/s10765-007-0223-x).

Test: xn = mol fraction of the nth substance listed
Conditions: 101 kPa, Liquid; for speed of sound: Single path-length method

COC(C)(C)C [2-methoxy-2-methylpropane] + c1ccccc1
Conditions | mass density [kg/m3] | speed of sound [m/s]
305.65 K, x1 = 0.052 | 856.117 | –
305.65 K, x1 = 0.111 | 846.045 | –
305.65 K, x1 = 0.202 | 831.061 | –
305.65 K, x1 = 0.303 | 815.461 | –
305.65 K, x1 = 0.397 | 801.707 | –
305.65 K, x1 = 0.5 | 787.314 | –
305.65 K, x1 = 0.596 | 774.518 | –
305.65 K, x1 = 0.698 | 761.485 | –
305.65 K, x1 = 0.791 | 750.234 | 1047.1
305.65 K, x1 = 0.902 | 737.34 | 1021.7
305.65 K, x1 = 0.95 | 731.914 | 1010.9
305.65 K, x1 = 1 | 726.444 | 1002.4
308.15 K, x1 = 0.052 | 853.44 | 1234.9
308.15 K, x1 = 0.111 | 843.388 | 1216.5
308.15 K, x1 = 0.202 | 828.417 | 1188.9
308.15 K, x1 = 0.303 | 812.827 | 1160
308.15 K, x1 = 0.397 | 799.075 | 1134.1
308.15 K, x1 = 0.5 | 784.683 | 1106.9
308.15 K, x1 = 0.596 | 771.88 | 1082.4
308.15 K, x1 = 0.698 | 758.841 | 1057.2
308.15 K, x1 = 0.791 | 747.582 | 1035.7
308.15 K, x1 = 0.902 | 734.673 | 1010.3
308.15 K, x1 = 0.95 | 729.241 | 999.43
308.15 K, x1 = 1 | 723.763 | 990.99
310.65 K, x1 = 0.052 | 850.759 | 1223.5
310.65 K, x1 = 0.111 | 840.726 | 1205.2
310.65 K, x1 = 0.202 | 825.767 | 1177.5
310.65 K, x1 = 0.303 | 810.187 | 1148.8
310.65 K, x1 = 0.397 | 796.438 | 1122.8
310.65 K, x1 = 0.5 | 782.044 | 1095.5
310.65 K, x1 = 0.596 | 769.234 | 1071.2
310.65 K, x1 = 0.698 | 756.187 | 1046
310.65 K, x1 = 0.791 | 744.918 | 1024.3
310.65 K, x1 = 0.902 | 731.995 | 998.9
310.65 K, x1 = 0.95 | 726.556 | 988.05
310.65 K, x1 = 1 | 721.069 | 979.62
313.15 K, x1 = 0.052 | 848.07 | 1212
313.15 K, x1 = 0.111 | 838.056 | 1193.8
313.15 K, x1 = 0.202 | 823.111 | 1166.3
313.15 K, x1 = 0.303 | 807.533 | 1137.4
313.15 K, x1 = 0.397 | 793.792 | 1111.5
313.15 K, x1 = 0.5 | 779.391 | 1084.2
313.15 K, x1 = 0.596 | 766.575 | 1059.8
313.15 K, x1 = 0.698 | 753.517 | 1034.6
313.15 K, x1 = 0.791 | 742.24 | 1013
313.15 K, x1 = 0.902 | 729.301 | 987.61
313.15 K, x1 = 0.95 | 723.852 | 976.7
313.15 K, x1 = 1 | 718.357 | 968.16
315.65 K, x1 = 0.052 | 845.378 | 1200.6
315.65 K, x1 = 0.111 | 835.381 | 1182.5
315.65 K, x1 = 0.202 | 820.447 | 1155
315.65 K, x1 = 0.303 | 804.877 | 1126.2
315.65 K, x1 = 0.397 | 791.135 | 1100.3
315.65 K, x1 = 0.5 | 776.733 | 1073
315.65 K, x1 = 0.596 | 763.908 | 1048.6
315.65 K, x1 = 0.698 | 750.84 | 1023.3
315.65 K, x1 = 0.791 | 739.55 | 1001.7
315.65 K, x1 = 0.902 | 726.593 | 976.23
315.65 K, x1 = 0.95 | 721.138 | 965.31
315.65 K, x1 = 1 | 715.636 | 956.8
318.15 K, x1 = 0.052 | 842.684 | 1189.4
318.15 K, x1 = 0.111 | 832.703 | 1171.3
318.15 K, x1 = 0.202 | 817.778 | 1143.8
318.15 K, x1 = 0.303 | 802.213 | 1115
318.15 K, x1 = 0.397 | 788.472 | 1089.2
318.15 K, x1 = 0.5 | 774.062 | 1061.8
318.15 K, x1 = 0.596 | 761.226 | 1037.4
318.15 K, x1 = 0.698 | 748.147 | 1012.1
318.15 K, x1 = 0.791 | 736.847 | 990.48
318.15 K, x1 = 0.902 | 723.87 | 964.92
320.65 K, x1 = 0.052 | 840.006 | 1178.4
320.65 K, x1 = 0.111 | 830.019 | 1160.1
320.65 K, x1 = 0.202 | 815.102 | 1132.6
320.65 K, x1 = 0.303 | 799.541 | 1103.9
320.65 K, x1 = 0.397 | 785.8 | 1078.1
320.65 K, x1 = 0.5 | 771.341 | 1050.4
320.65 K, x1 = 0.596 | 758.536 | 1026.2
320.65 K, x1 = 0.698 | 745.444 | 1001
320.65 K, x1 = 0.791 | 734.13 | 979.25
320.65 K, x1 = 0.902 | 721.133 | 953.72
323.15 K, x1 = 0.052 | 837.364 | 1168
323.15 K, x1 = 0.111 | 827.342 | 1149.2
323.15 K, x1 = 0.202 | 812.432 | 1121.7
323.15 K, x1 = 0.303 | 796.876 | 1093
323.15 K, x1 = 0.397 | 783.138 | 1067.2
323.15 K, x1 = 0.5 | 768.725 | 1040
323.15 K, x1 = 0.596 | 755.841 | 1015.2
323.15 K, x1 = 0.698 | 742.756 | 990.11
323.15 K, x1 = 0.791 | 731.411 | 968.17
323.15 K, x1 = 0.902 | 718.4 | 942.69
323.15 K, x1 = 0.95 | 712.917 | 931.73
323.15 K, x1 = 1 | 707.381 | 922.97
